ChEMBL document CHEMBL1158466, “Discovery of novel 2-aminobenzamide inhibitors of heat shock protein 90 as potent, selective and orally active antitumor agents” (J Med Chem, 2009)
≈ marks a conversion by molar mass, not a printed value.

Key:
Heat shock protein HSP90 [1] = target: T1, Heat shock protein HSP90 (Homo sapiens, UniProt P07900+P08238); format: cell-based; conditions: au565
[2] = Binding affinity to pig spleen Hsp90 ATPase pocket by Bradford assay; format: tissue-based, Sus scrofa
[3] = Oral bioavailability in mouse; format: ADME, organism-based; conditions: in vivo
A-375 = experiment: Antiproliferative activity against human A375 cells after 72 to 144 hrs by cyquant DNA dye method; format: functional, cell-based
LNCaP = experiment: Antiproliferative activity against human LNCAP cells after 72 to 144 hrs by cyquant DNA dye method; format: functional, cell-based
MCF7 = experiment: Antiproliferative activity against human MCF7 cells after 72 to 144 hrs by cyquant DNA dye method; format: functional, cell-based
HT-29 = experiment: Antiproliferative activity against human HT-29 cells after 72 to 144 hrs by cyquant DNA dye method; format: functional, cell-based
SW-620 = experiment: Antiproliferative activity against human SW620 cells after 72 to 144 hrs by cyquant DNA dye method; format: functional, cell-based
SK-MEL-5 = experiment: Antiproliferative activity against human SK-MEL-5 cells after 72 to 144 hrs by cyquant DNA dye method; format: functional, cell-based
PC-3 = experiment: Antiproliferative activity against human PC3 cells after 72 to 144 hrs by cyquant DNA dye method; format: functional, cell-based
MDA-MB-231 = experiment: Antiproliferative activity against human MDA-MB-231 cells after 72 to 144 hrs by cyquant DNA dye method; format: functional, cell-based
NCI-H460 = experiment: Antiproliferative activity against human NCI-H460 cells after 72 to 144 hrs by cyquant DNA dye method; format: functional, cell-based
HCT-15 = experiment: Antiproliferative activity against human HCT15 cells after 72 to 144 hrs by cyquant DNA dye method; format: functional, cell-based
K562 = experiment: Antiproliferative activity against human K562 cells after 72 to 144 hrs by cyquant DNA dye method; format: functional, cell-based
Liver microsomes = experiment: Metabolic stability in human liver microsomes at 1 uM after 1 hr; format: ADME, Microsome
[4] = Metabolic stability in human liver S9 fraction assessed as drug remaining at 1 uM after 1 hr; format: ADME, subcellular; conditions: read-out: Stability
[5] = Solubility of the compound; format: physicochemical
[6] = Aqueous solubility in phosphate-buffered saline at pH 7.4; format: physicochemical
[7] = Oral bioavailability in rat; format: ADME, organism-based; conditions: in vivo
Heat shock protein HSP90 [8] = target: T1, Heat shock protein HSP90; conditions: a-375
Description: Inhibition of Hsp90 in human A375 cells assessed as Hsp70 induction after 24 hrs by high content screening

Heat shock protein HSP90 [9] = target: T1, Heat shock protein HSP90; conditions: a-375; remark: listed apart in the source
Description: Inhibition of Hsp90 in human A375 cells assessed as pS6 degradation after 24 hrs by high content screening

Heat shock protein HSP90 [10] = target: T1, Heat shock protein HSP90; conditions: au565
Description: Inhibition of Hsp90 in human AU565 cells assessed as pERK degradation after 24 hrs by high content screening

| IC50 (Heat shock protein HSP90 [1]) [nM] | Kd [2] [nM] | SMILES | other results |
| --- | --- | --- | --- |
| 147 | 14 | Cc1nn(-c2ccc(C(N)=O)c(NC(C)S(C)(=O)=O)c2)c2c1C(=O)CC(C)(C)C2 (stereo unspecified) |  |
| 111 | 15 | Cc1nn(-c2ccc(C(N)=O)c(NC3CC=CC3)c2)c2c1C(=O)CC(C)(C)C2 |  |
| > 100000 | 3730 | Cc1cc2c(n1-c1ccc(C(N)=O)cc1)CC(C)(C)CC2=O |  |
| > 10000 | > 50000 | CCCCOc1cc(-n2c(C)cc3c2CC(C)(C)CC3=O)ccc1C(N)=O |  |
| 418 | 1020 | Cc1cn(-c2ccc(C(N)=O)c(N[C@@H](C)c3ccccc3)c2)c2c1C(=O)CC(C)(C)C2 |  |
| > 10000 | 1060 | Cc1cc2c(n1-c1ccc(C(N)=O)c(Sc3ccccc3)c1)CC(C)(C)CC2=O |  |
|  | 530 | CC1(C)CC(=O)c2c(C(F)(F)F)nn(-c3ccc(C(N)=O)c(N[C@H]4CC[C@@H](O)CC4)c3)c2C1 |  |
| 50 | 43 | Cc1nn(-c2ccc(C(N)=O)c(NC3CCOCC3)c2)c2c1C(=O)CC(C)(C)C2 |  |
| 46 | 41 | CC1(C)CC(=O)c2c(CC3CC3)nn(-c3ccc(C(N)=O)c(N[C@H]4CC[C@H](O)CC4)c3)c2C1 |  |
| 229 | 114 | Cc1nn(-c2ccc(C(N)=O)c(NC3CCC3)c2)c2c1C(=O)CC(C)(C)C2 |  |
| > 10000 | 1960 | CCCCCc1cc(-n2c(C)cc3c2CC(C)(C)CC3=O)ccc1C(N)=O |  |
| 16 | 98 | CC1(C)CC(=O)c2c(C(F)F)nn(-c3ccc(C(N)=O)c(N[C@H]4CC[C@H](O)CC4)c3)c2C1 |  |
| 264 | 94 | CC1(C)CC(=O)c2c(C(F)(F)F)nn(-c3ccc(C(N)=O)c(NCCCN4CCCC4=O)c3)c2C1 |  |
| > 4000 | 294 | Cc1cn(-c2ccc(C(N)=O)c(NCCN3CCOCC3)c2)c2c1C(=O)CC(C)(C)C2 |  |
| 1590 | 690 | COc1ccc(Nc2cc(-n3c(C)cc4c3CC(C)(C)CC4=O)ccc2C(N)=O)cc1 |  |
| 226 | 63 | CSCCNc1cc(-n2nc(C)c3c2CC(C)(C)CC3=O)ccc1C(N)=O |  |
| 35 | 11 | CC1(C)CC(=O)c2c(C(F)F)nn(-c3ccc(C(N)=O)c(NC4CCSCC4)c3)c2C1 |  |
| 6400 | 370 | Cc1cc2c(n1-c1ccc(C(N)=O)c(Nc3ccccc3)c1)CC(C)(C)CC2=O |  |
| 1610 | 940 | COc1cc(Nc2cc(-n3cc(C)c4c3CCCC4=O)ccc2C(N)=O)cc(OC)c1OC |  |
| 203 | 177 | CC(C)c1nn(-c2ccc(C(N)=O)c(N[C@H]3CC[C@H](O)CC3)c2)c2c1C(=O)CC(C)(C)C2 |  |
| 9 | 20 | CCc1nn(-c2ccc(C(N)=O)c(N[C@H]3CC[C@H](O)CC3)c2)c2c1C(=O)CC(C)(C)C2 |  |

More lines, now with the values behind:

| SMILES | IC50 (Heat shock protein HSP90 [1]) [nM] | Kd [2] [nM] | other results |
| --- | --- | --- | --- |
| Cc1c2c(n(-c3ccc(C(N)=O)c(N[C@H]4CC[C@H](O)CC4)c3)c1C)CC(C)(C)CC2=O | 64 | 86 |  |
| Cc1cn(-c2ccc(C(N)=O)c(N3CCNCC3)c2)c2c1C(=O)CC(C)(C)C2 | > 7000 | 843 |  |
| CC1(C)CC(=O)c2c(C(F)(F)F)nn(-c3ccc(C(N)=O)c(N[C@H]4CC[C@H](O)CC4)c3)c2C1 [SNX-2112] |  | 16 | bioavailability [3]: 40%; IC50 (A-375): 23 nM; IC50 (LNCaP): 3 nM; IC50 (MCF7): 53 nM; IC50 (HT-29): 3 nM; IC50 (SW-620): 3 nM; IC50 (SK-MEL-5): 6 nM; IC50 (PC-3): 17 nM; IC50 (MDA-MB-231): 6 nM; IC50 (NCI-H460): 18 nM; IC50 (HCT-15): 52 nM; IC50 (K562): 6 nM; Stability (Liver microsomes): Stable; remaining at 1 h, 1 µM [4]: 88%; solubility [5]: 170 µM (≈ 79 µg/mL); solubility [6]: 6 µM (≈ 2.79 µg/mL) |
| Cc1nn(-c2ccc(C(N)=O)c(N[C@H]3CC[C@H](O)CC3)c2)c2c1C(=O)CC(C)(C)C2 | 30 | 16 |  |
| COCC(COC)Nc1cc(-n2nc(C(F)(F)F)c3c2CC(C)(C)CC3=O)ccc1C(N)=O | 181 | 78 |  |
| Cc1cn(-c2ccc(C(N)=O)c(N[C@H]3CC[C@H](O)CC3)c2)c2c1C(=O)CC(C)(C)C2 | 7 | 27 | bioavailability [7]: 10%; IC50 (A-375): 9 nM; IC50 (LNCaP): 4 nM; IC50 (MCF7): 10 nM; IC50 (HT-29): 7 nM; IC50 (SW-620): 6 nM; IC50 (SK-MEL-5): 7 nM; IC50 (PC-3): 14 nM; IC50 (MDA-MB-231): 10 nM; IC50 (NCI-H460): 248 nM; IC50 (HCT-15): 61 nM; IC50 (K562): 3 nM; IC50 (Heat shock protein HSP90 [8]): 14 nM; IC50 (Heat shock protein HSP90 [9]): 7 nM; IC50 (Heat shock protein HSP90 [10]): 16 nM |
| COc1cc(Nc2cc(-n3cc(C)c4c3CC(C)(C)CC4=O)ccc2C(N)=O)cc(OC)c1OC | 46 | 390 |  |
| C=CCNC1=C2C[C@@H](C)C[C@H](OC)[C@H](O)[C@@H](C)/C=C(\C)[C@H](OC(N)=O)[C@@H](OC)/C=C\C=C(/C)C(=O)NC(=CC1=O)C2=O [TANESPIMYCIN] |  | 87 | IC50 (A-375): 1290 nM; IC50 (LNCaP): 82 nM; IC50 (MCF7): 0.3 nM; IC50 (HT-29): 0.1 nM; IC50 (SW-620): 328 nM; IC50 (SK-MEL-5): 134 nM; IC50 (PC-3): 9 nM; IC50 (MDA-MB-231): 194 nM; IC50 (NCI-H460): 255 nM; IC50 (HCT-15): 1490 nM; IC50 (K562): 126 nM |
| Cc1nn(-c2ccc(C(N)=O)c(NCc3ccco3)c2)c2c1C(=O)CC(C)(C)C2 | > 1000 | 216 |  |
| CCCCNc1cc(-n2c(C)cc3c2CC(C)(C)CC3=O)ccc1C(N)=O | > 10000 | 390 |  |
| COc1cc(Nc2cc(-n3ccc4c3CC(C)(C)CC4=O)ccc2C(N)=O)cc(OC)c1OC | 1830 | 0.59 |  |
| Cc1nn(-c2ccc(C(N)=O)c(NCC3CC3)c2)c2c1C(=O)CC(C)(C)C2 | 184 | 51 |  |
| COCC(C)Nc1cc(-n2nc(C)c3c2CC(C)(C)CC3=O)ccc1C(N)=O (stereo unspecified) | 115 | 67 |  |
| COCCNc1cc(-n2c(C)cc3c2CC(C)(C)CC3=O)ccc1C(N)=O | > 10000 | 390 |  |
| COc1cc(Nc2cc(-n3c(C)cc4c3CC(C)(C)CC4=O)ccc2C(N)=O)cc(OC)c1OC | 490 | 220 |  |
